Literature values in patent US20130018223A1, “METHOD FOR TIMING A COLONOSCOPY” (priority 2011, published 2013).

[O]=[Mg] [Magnesium oxide]
solubility in alcohol: not soluble
